Assay results published in BindingDB's records for doi:10.1111/cbdd.12580 (Sichuan University, 2015).

Assays:
Acetylcholinesterase = target: T1, Acetylcholinesterase (Rattus norvegicus, UniProt P37136); test: Modified Ellman Assay
T1 sequence (P37136 whole entry): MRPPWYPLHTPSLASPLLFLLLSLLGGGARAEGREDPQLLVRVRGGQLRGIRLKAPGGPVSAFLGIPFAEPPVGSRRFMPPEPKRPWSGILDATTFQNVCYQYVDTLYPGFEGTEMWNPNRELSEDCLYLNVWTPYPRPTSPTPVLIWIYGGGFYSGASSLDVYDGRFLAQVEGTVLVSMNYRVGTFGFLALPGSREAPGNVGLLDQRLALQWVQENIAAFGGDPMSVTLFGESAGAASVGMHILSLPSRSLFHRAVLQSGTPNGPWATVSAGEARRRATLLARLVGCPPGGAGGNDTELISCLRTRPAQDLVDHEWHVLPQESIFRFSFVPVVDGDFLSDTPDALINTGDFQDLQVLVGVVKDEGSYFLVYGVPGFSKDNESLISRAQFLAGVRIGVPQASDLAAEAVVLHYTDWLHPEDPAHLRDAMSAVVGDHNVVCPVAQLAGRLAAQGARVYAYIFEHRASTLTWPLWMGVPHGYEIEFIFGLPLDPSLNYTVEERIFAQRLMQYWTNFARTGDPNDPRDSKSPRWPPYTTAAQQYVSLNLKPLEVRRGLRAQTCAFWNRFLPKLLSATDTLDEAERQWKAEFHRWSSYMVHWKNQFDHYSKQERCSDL
Protocol: (§1) Then, 5,5'-dithiobis-2-nitrobenzoic acid (DTNB, 0.2%, 30 μL) (J&K Scientific) was added.

[1] = target: Carboxylic ester hydrolase (Rattus norvegicus, UniProt Q9JKC1); test: Modified Ellman Assay
Chain of Carboxylic ester hydrolase (Q9JKC1 whole entry): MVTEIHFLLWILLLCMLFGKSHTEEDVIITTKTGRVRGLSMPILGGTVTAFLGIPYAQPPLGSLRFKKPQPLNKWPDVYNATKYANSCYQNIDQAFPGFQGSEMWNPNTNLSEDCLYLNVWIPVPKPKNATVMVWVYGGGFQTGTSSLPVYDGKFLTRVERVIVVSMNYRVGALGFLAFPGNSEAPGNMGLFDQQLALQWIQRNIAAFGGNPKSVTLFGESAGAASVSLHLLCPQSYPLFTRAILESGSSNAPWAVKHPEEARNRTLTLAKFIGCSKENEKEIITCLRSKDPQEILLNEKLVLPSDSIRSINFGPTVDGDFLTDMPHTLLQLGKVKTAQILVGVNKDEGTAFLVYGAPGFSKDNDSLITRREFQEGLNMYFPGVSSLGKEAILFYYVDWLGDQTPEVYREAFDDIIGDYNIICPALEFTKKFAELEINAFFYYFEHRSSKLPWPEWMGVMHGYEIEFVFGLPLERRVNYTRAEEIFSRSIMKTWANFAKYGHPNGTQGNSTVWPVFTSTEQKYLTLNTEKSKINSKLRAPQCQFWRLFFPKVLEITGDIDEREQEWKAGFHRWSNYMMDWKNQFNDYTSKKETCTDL
Protocol: as §1

Structure (SMILES): CN(C)C(=O)Oc1ccc(-c2cc(=O)c3c(O)c(O)c(O)cc3o2)cc1 [N,N-dimethylcarbamic acid-4-(5,6,7-trihydroxy-4-oxo-4H-1-benzopyran-2-yl)phenyl ester (7a)]
- IC50 (Acetylcholinesterase): 6.3 µM
- IC50 [1]: 32 µM

Structure (SMILES): CCN(CC)C(=O)Oc1ccc(-c2cc(=O)c3c(O)c(OC(C)=O)c(OC(C)=O)cc3o2)cc1 [N,N-diethylcarbamic acid-4-[6,7-bis(acetyloxy)-5-hydroxy-4-oxo-4H-1-benzopyran-2-yl]phenyl ester (7l)]
- IC50 (Acetylcholinesterase): 2 µM
- IC50 [1]: 62.1 µM

Structure (SMILES): O=C(Oc1ccc(-c2cc(=O)c3c(O)c(O)c(O)cc3o2)cc1)N1CCC(Cc2ccccc2)CC1 [4-(Phenylmethyl)-1-piperidinecarboxylic acid-4-(5,6,7-trihydroxy-4-oxo-4H-1-benzopyran-2-yl)phenyl ester (7h)]
- IC50 (Acetylcholinesterase): 62.2 µM
- IC50 [1]: 35 µM

Structure (SMILES): O=C(Oc1ccc(-c2cc(=O)c3c(O)c(O)c(O)cc3o2)cc1)N1CCCC1 [1-Pyrrolidinecarboxylic acid-4-(5,6,7-trihydroxy-4-oxo-4H-1-benzopyran-2-yl)phenyl ester (7e)]
- IC50 (Acetylcholinesterase): 40.7 µM
- IC50 [1]: > 100 µM

Structure (SMILES): O=c1cc(-c2ccc(O)cc2)oc2cc(O)c(O)c(O)c12 [5,6,7-trihydroxy-2-(4-hydroxyphenyl)-4H-chromen-4-one]
- IC50 (Acetylcholinesterase): > 100 µM
- IC50 [1]: > 100 µM

Structure (SMILES): CC(C)N(C(=O)Oc1ccc(-c2cc(=O)c3c(O)c(O)c(O)cc3o2)cc1)C(C)C [N,N-bis(1-methylethyl)carbamic acid-4-(5,6,7-trihydroxy-4-oxo-4H-1-benzopyran-2-yl)phenyl ester (7c)]
- IC50 (Acetylcholinesterase): 4 µM
- IC50 [1]: 42 µM

Structure (SMILES): O=C(Oc1ccc(-c2cc(=O)c3c(O)c(O)c(O)cc3o2)cc1)N1CCCCC1 [1-Piperidinecarboxylic acid-4-(5,6,7-trihydroxy-4-oxo-4H-1-benzopyran-2-yl)phenyl ester (7g)]
- IC50 (Acetylcholinesterase): 12.6 µM
- IC50 [1]: > 100 µM

Structure (SMILES): CCN(CC)C(=O)Oc1ccc(-c2cc(=O)c3c(OC(C)=O)c(OC(C)=O)c(OC(C)=O)cc3o2)cc1 [N,N-diethylcarbamic acid-4-[5,6,7-tris(acetyloxy)-4-oxo-4H-1-benzopyran-2-yl]phenyl ester (7k)]
- IC50 (Acetylcholinesterase): 1.5 µM
- IC50 [1]: 50.3 µM

Structure (SMILES): CCN(C)C(=O)Oc1ccc(-c2cc(=O)c3c(O)c(O)c(O)cc3o2)cc1 [N-ethyl-N-methylcarbamic acid-4-(5,6,7-trihydroxy-4-oxo-4H-1-benzopyran-2-yl)phenyl ester (7d)]
- IC50 (Acetylcholinesterase): 2.7 µM
- IC50 [1]: 30.5 µM

Structure (SMILES): CCN(CC)C(=O)Oc1ccc(-c2cc(=O)c3c(OC)c(OC)c(OC)cc3o2)cc1 [N,N-diethylcarbamic acid-4-(5,6,7-trimethoxy-4-oxo-4H-1-benzopyran-2-yl)phenyl ester (7i)]
- IC50 [1]: 8.2 µM

Structure (SMILES): O=C(Oc1ccc(-c2cc(=O)c3c(O)c(O)c(O)cc3o2)cc1)N1CCOCC1 [4-Morpholinecarboxylic acid-4-(5,6,7-trihydroxy-4-oxo-4H-1-benzopyran-2-yl)phenyl ester (7f)]
- IC50 (Acetylcholinesterase): 28.5 µM
- IC50 [1]: > 100 µM

Structure (SMILES): CCN(CC)C(=O)Oc1ccc(-c2cc(=O)c3c(O)c(OC)c(OC)cc3o2)cc1 [N,N-diethylcarbamic acid-4-(5-hydroxy-6,7-dimethoxy-4-oxo-4H-1-benzopyran-2-yl)phenyl ester (7j)]
- IC50 [1]: 22.6 µM

Structure (SMILES): CCN(CC)C(=O)Oc1ccc(-c2cc(=O)c3c(O)c(O)c(O)cc3o2)cc1 [N,N-diethylcarbamic acid-4-(5,6,7-trihydroxy-4-oxo-4H-1-benzopyran-2-yl)phenyl ester (7b)]
- IC50 (Acetylcholinesterase): 1.2 µM
- IC50 [1]: 22.1 µM
